The values below are quoted from earlier work in patent publication US20170143768A1, “OINTMENT FOR THE TREATMENT OF HEMORRHOIDAL DISEASE” (Global Treat SRL, priority 2014, published 2017).

Consider `CC12CCC(CC1=O)C2(C)C` (stereo not shown) [camphor], for which the solubility in water result is given as “water-soluble”.
